Measured values taken from paper PMC5955586, “Transport of enniatin B and enniatin B1 across the blood-brain barrier and hints for neurotoxic effects in cerebral cells” (PLoS ONE, 2018).
Where two headings read alike, the source gives them in different places.

Legend:
[1] = test system: CCF-STTG1 cells; test: CCK-8 viability assay in CCF-STTG1; type: cell-based, human; details: for concentration with highly significant cytotoxic effects / IC50: CCF-STTG1, 48 h; for IC50: Homo sapiens, CCK-8, read-out: IC50 (cellular viability)
Protocol: To test the viability and to define the working range for later transport studies ENN B/ENN B1 stock solutions in ACN were diluted to the respective concentrations with serum free culture medium (1% ACN). An astrocytoma cell line, CCF-STTG1 (ATCC, Manassas, USA), and HBMEC cell line (human brain microvascular endothelial cells, kindly provided by Prof. Dr. Karch, Institute of Hygiene, University of Muenster (WWU Muenster)) were cultivated in RPMI 1640 medium supplemented with 100 U/mL penicillin, 100 μg/mL streptomycin, 2 mM L-glutamine and 10% (v/v) fetal calf serum (FCS) (medium for HBMEC additionally supplemented with 1 mM Na-pyruvate) using standardized culture conditions (37°C, 5% CO2, saturated humidified atmosphere). Culture medium was changed every 2–3 d, and the cells were subcultivated after trypsination when they reached a microscopic confluence of approximately 80%. For the evaluation of cytotoxic effects of ENN B and B1 in CCF-STTG1 and HBMEC, Cell Counting Kit-8 (CCK-8, Dojindo Laboratories, Tokyo Japan) was applied. The assay was performed according to the manufacturer’s instructions with slight modifications.
Briefly, the cells were seeded in 96-well tissue culture plates in a density of 1 × 10^4 cells/well (CCF-STTG1) and 4 × 10^3 cells/well (HBMEC), respectively. The cells were allowed to grow for 24 h, then the culture medium was replaced by serum free medium (100 μL/well), and the cells were cultivated for another 24 h (37°C, 5% CO2, saturated humidified atmosphere) before treatment. The cells were treated with ENN B and ENN B1 in a concentration range from 0.1 μM to 10 μM and were incubated for 48 h. After toxin exposure, the toxin solution was exchanged with a dye solution WST-8 (CCK-8 solution, water soluble tetrazolium salt-8, 2-(2-methoxy-4-nitrophenyl)-3-)4-nitrophenyl)-5-(2,4-disulfophenyl)-2H-tetrazolium monosodium salt), 1:10 diluted with fresh serum free medium, which was added to the cells followed by incubation for 60 min at 37°C. WST-8 dye is reduced to a water-soluble formazan by cellular dehydrogenases of viable cells, which increases the absorbance at λ = 457 nm and was measured with an Infinite M200 PRO microplate reader with Tecan i-control software version 1.7.1.12 (Tecan, Crailsheim, Germany). The amount of formazan generated by the activity of dehydrogenases in cells is directly proportional to the number of viable cells per well. The results are normalized to a solvent treated negative control (1% ACN).

[2] = test system: caspase-3; test: Caspase-3 activity in CCF-STTG1 lysates; type: cell-based, human; details: 48 h
Protocol: For studying caspase-3 activity CCF-STTG1 cells were seeded in 12 well tissue culture plates in a cell density of 2.25 × 10^5 cells/well. The cells were grown for 24 h until a confluence of at least 70% was reached, then the medium was changed to serum free medium (RPMI 1640 medium supplemented with 100 U/mL penicillin, 100 μg/mL streptomycin and 2 mM L-glutamine). Concentrations from 0.1 μM to 2.5 μM were chosen to prevent strong cytotoxic effects, which might interfere with the endpoint of interest. 24 h after adaption to serum free conditions, cells were incubated with ENN B and ENN B1. Caspase-3 activity was determined in lysates. […] 33 μL reaction solution were added to 30 μL of the supernatant and incubated for 1 and 2 h at 37°C, 5% CO2 and saturated humidified atmosphere and then measured at λex = 405 nm and λem = 520 nm (Infinite M200 PRO microplate reader). […] The results were calculated as μmol AFC/μg protein and normalized to the solvent treated control (ACN 0.25%).
For quantitation of the total protein content a bicinchoninic acid (BCA) assay kit (Sigma-Aldrich GmbH, Seelze, Germany) was applied. […] After that the absorbance was measured at 560 nm with a Infinite M200 PRO microplate reader (Tecan, Crailsheim, Germany).

[3] = test system: PBCEC; test: Barrier integrity of PBCEC (TEER and capacitance CCl); type: cell-based, porcine; details: for barrier impairing effect: 200 nM; for effect on TEER value / effect on monolayer confluency (capacitance CCl): 1 μM, 48 h
Protocol: Before starting each experiment, the TEER values and the electrical capacitance of all cell layers were measured via cellular impedance spectroscopy (cellZscope®, nanoAnalytics, Münster, Germany). […] TEER values relate to the constitution of the tight junctions limiting paracellular transfer of compounds. In addition to the TEER, electrical capacitances (CCl) were monitored for 48 h. Cellular phospholipid bilayers act like an electrical capacitor and also contribute to the cellular impedance. Changes of the CCl value give information about the integrity of the cell monolayer. In this experiment, a parallel set up was applied. For each treatment, one triplicate of filters was monitored via cellular impedance spectroscopy over the course of 48 h using a cellZscope® device–here, the basolateral compartment was prepared with 1650 μL serum free medium and the volume in the apical compartment was filled to 760 μL (ratio 1:2.17). Another triplicate for the same incubation conditions was kept in Transwell® filter cell culture multiple well plates (12 well format) over the course of 48 h. In the multiple well plates the ratio between the apical and the basolateral compartment was 1:3, therefore the starting volume in the apical compartment is 500 μL and 1500 μL in the basolateral compartment. Here, samples for quantitation of transfer of enniatins across the barrier were drawn after 1, 2.5, 6.5, 18, 24, 28, 42 and 48 hours in this given ratio i.e. 30 μL apical and 90 μL basolateral. After 48 h, the final TEER values of the filters from the multiple well plate were measured to ensure the stability of the cell layer throughout the experiment. To double check the integrity of the barrier, lucifer yellow (LY, 50 μM), as a paracellular transfer marker, was applied. The amount of LY found in the basolateral compartment after 1 h was measured at λex = 430 nm and λ em = 540 nm.

[4] = test system: Caco-2 cells; design: method as in PMID 21640785; details: cited from earlier work

## CC[C@H](C)[C@H]1C(=O)O[C@H](C(C)C)C(=O)N(C)[C@@H](C(C)C)C(=O)O[C@H](C(C)C)C(=O)N(C)[C@@H](C(C)C)C(=O)O[C@H](C(C)C)C(=O)N1C [ENN B1, enniatin B1]
[1]; CCF-STTG1, 0.1 μM and 1 μM, 48 h
  effect on viability: weak but significant effects
[1]
  concentration with highly significant cytotoxic effects: ≥ 2.5 µM
  IC50: 4.4 µM
[2]; CCF-STTG1, 1 μM
  maximum increase of caspase-3 activity (relative to solvent control): 160%
[3]
  barrier impairing effect: did not have any barrier impairing effect
  effect on TEER value: does not lead to a breakdown of the TEER value
  effect on monolayer confluency (capacitance CCl): does not impair PBCEC confluency
[4]; read-out: IC50
  IC50: 11.5 µM

## CC(C)[C@H]1C(=O)O[C@H](C(C)C)C(=O)N(C)[C@@H](C(C)C)C(=O)O[C@H](C(C)C)C(=O)N(C)[C@@H](C(C)C)C(=O)O[C@H](C(C)C)C(=O)N1C [ENN B, enniatin B]
[1]
  concentration with highly significant cytotoxic effects: ≥ 5 µM
  IC50: 8.9 µM
[2]; CCF-STTG1, 2.5 μM
  increase of caspase-3 activity compared to solvent control: 2.7 fold
[3]
  barrier impairing effect: did not have any barrier impairing effect
  effect on TEER value: does not lead to a breakdown of the TEER value
  effect on monolayer confluency (capacitance CCl): does not impair PBCEC confluency
[4]
  IC50: no IC50 could be calculated
